# Test results from patent US10610602B2, “Tumor cell-specific responsive self-assembling drug nanoconjugate” (KOREA INSTITUTE OF SCIENCE AND TECHNOLOGY, priority 2017, dated 2020).
# Entries after “also recorded” stand apart in the source; their conditions may differ. Like-named read-outs stand apart in the source and are kept apart here. Residues, ends and D or L forms follow the SMILES beside them. No end group written: not given here. *: point of attachment. Doxorubicin(3'-N) = COc1cccc2c1C(=O)c1c(O)c3c(c(O)c1C2=O)C[C@@](O)(C(=O)CO)C[C@@H]3O[C@H]1C[C@H](N*)[C@H](O)[C@H](C)O1
# Assays:
# [1] = system: cells; test: Cellular and nuclear uptake of drug conjugates of Examples 2-4, confocal microscopy; assay type: cell-based; settings: for absorption into cells / antitumor effects or intracellular uptake effects: FIGS. 5C and 5D
# Description: In FIG. 5D, “Cytosol “and “Nucleus” indicate the fluorescence intensities of DOX measured in cytosol and cell nuclei, respectively.
# [2] = Nanoparticle size by dynamic light scattering; assay type: physicochemical; settings: FIG. 5B
# Experimental: The size distribution was measured using Zetasizer Nano ZS (Malvern Instruments, Worcestershire, U.K).
# [3] = system: HT29 tumor; test: Doxorubicin accumulation in tumor tissues after intravenous administration, near-infrared fluorescence
# Experimental: (§1) In this example, the in vivo anticancer effects of doxorubicin (Free DOX) and FRRG-DOX (SEQ ID NO: 7) of Example 1 were investigated. First, 1×10^7 HT-29 cells were directly injected into the right flank of each tumor animal model constructed in 1) (n=4 per group). When the tumor size reached ˜250-300 mm3, doxorubicin (Free DOX, 5 mg/kg) and FRRG DOX (SEQ ID NO: 7) of Example 1 (5 mg/kg) were administered intravenously once every three days for 15 days.
# (§2) The therapeutic efficacies of Free DOX, FRRG-DOX (SEQ ID NO: 7), and the control were compared by measuring the tumor volumes (maximum diameter×minimum diameter 2×0.53) for 15 days. The viabilities and weights of the tumor animal models were measured once a day for 15 days. The accumulations of Free DOX and FRRG-DOX (SEQ ID NO: 7) in the tumor tissues of the tumor animal models were monitored using IVIS Lumina Series III (PerkinElmer, Massachusetts, USA). The fluorescence intensities of Free DOX and FRRG-DOX (SEQ ID NO: 7) in the tumor tissues were quantified using the Living Image software (PerkinElmer, Massachusetts, USA).
# [4] = system: HT29 tumor; settings: for viability (survival rate) of animal tumor models: for 16 days, FIG. 4C; for apoptosis in organ tissues (annexin V staining): heart, spleen, tumor tissues, FIG. 4D
# Experimental: as §1, with “˜200 mm^3,” for “˜250-300 mm3,”, “by tail vein injection” for “intravenously”
# as §2
# Annexin V staining was performed to confirm that apoptosis occurred in tumor tissues excised from the tumor animal models. First, section slides (10 μm) of the excised tumor tissues were washed three times with DPBS, incubated with annexin V solution (200 μl of a binding buffer containing 5 μl of annexin V-Cy5.5) at 37° C. for 20 min, incubated with DAPI at room temperature for 15 min, placed on cover glass, and observed under a confocal laser microscope.
# [5] = Heart damage markers in blood samples; settings: versus control (saline), FIG. 4E
# [6] = Electrocardiography (ECG) analysis; assay type: in vivo, ICR mice; settings: intravenous; 5 mg/kg doxorubicin or 10 mg/kg FRRG-doxorubicin; versus control
# Experimental: ECG analysis was performed under the approval of the Institutional Animal Care and Use Committee at the Korea Institute of Toxicology. All procedures were performed according to the National Institutes of Health guidelines for the care and use of laboratory animals. A mixture of isoflourane and oxygen as an anaesthetic gas was injected at a rate of 2 cc/min to ICR mice (25-35 g, Orient Bio Inc., Seoul, Korea). ECG was measured before injection of the anaesthetic gas into an animal bio amp (ADinstruments Pty Ltd, Bella Vista, Australia). The measured ECG was defined as baseline. For 6 h after injection of the anaesthetic gas, ECG was measured. All mice were injected intravenously with saline, 5 mg/kg doxorubicin (in saline) or 10 mg/kg FRRG-doxorubicin (SEQ ID NO: 7) (Example 1) (in saline). The measured ECG data were analyzed using the LabChart 8 software (ADinstruments Pty Ltd, Bella Vista, Australia). Corrected QT (QTc) was calculated using Van de Water's formula 2 and Bazett's formula 3: QTc−V=0.087[(60/HR)−1] (2) QTc−B=QT/(RR)1/2 (3)
# [7] = system: hiPSC-CMs; test: Multi-electrode array (MEA) analysis; assay type: cell-based, human; settings: FRRG-DOX 0.2 μM; doxorubicin 0.1 μM; compared to the baseline
# Experimental: Multi-electrode array analysis was conducted by the following procedure. First, human induced pluripotent stem cell-derived cardiomyocytes (hiPSC-CMs, Cellular Dynamics International [CDI], Madison, Wis., USA) were thawed in a 100 mm culture dish. After 1 week, the thawed hiPSC-CMs were plated in an MEA plate coated with fibronectin solution (50 μg/ml). On day 2 after thawing, the plating medium was replaced with a maintenance medium (CDI). Maintenance media were replaced with new ones every 2-3 days. Only 50% of the culture media were replaced with new ones. 2 weeks after plating in the plate, field potentials of spontaneously beating cardiomyocytes were recorded using a Maestro system (Axion Biosystems Inc., Atlanta, Ga., USA). The waveforms of the extracellular field potentials were recorded 10 min after the equilibration period. Inter-spike interval and extracellular field potential duration (FPD) were analyzed and quantified. To minimize the influence of the beat rate on FPD, corrected FPD (FPDcF) was calculated using Fridericia's formula 1: FPDcF=FPD/[inter−spike interval]1/3 (1)
# [8] = system: HT-29 cells; test: In vitro cell viability (CCK); assay type: cell-based, human; settings: HT29, FIG. 5E
# Experimental: (§3) First, HT-29 cells were plated in a 96-well plate at a density of 1×10^4 cells/well. […] Then, […] of CCK solution was added to each well. After further culture for 30 min, the absorbance of each 96-well plate at 450 nm was analyzed using a microplate reader (VERSAmax™, Molecular Devices Corp., Sunnyvale, Calif.). For comparison, the cell viabilities (%) of H9C2 cells (normal cells) were measured in the same manner as described above.
# [9] = rat, in vivo
# [10] = system: H9C2 cells (normal cells); assay type: cell-based, Rattus
# Experimental: as §3
# [11] = Non-enzymatic hydrolysis in PBS buffer only, HPLC; assay type: physicochemical; settings: 37° C., 9 h
# Experimental: The drug conjugate of Example 1 was allowed to react with other enzymes (10 μg/ml cathepsins D, E, and L) and PBS buffer only (in this case, a non-enzymatic hydrolysis product was obtained) and the reaction products were analyzed by HPLC at 37° C. for 9 h.
# [12] = intravenous, DAPI-stained tissue sections, FIG. 3G
# [13] = 5 mg/kg tail vein once every three days for 15 days
Compound,absorption into cells [1],antitumor effects or intracellular uptake effects [1],measured sizes of the nanoparticles [2],"doxorubicin accumulation in tumor tissues [3, 12]","toxicity to normal cells in tumor animal models [4, 13]",viability (survival rate) of animal tumor models [4],apoptosis in organ tissues (annexin V staining) [4],FPD [7],FPDcF [7],also measured
GGFRRGGG-DOX (GGFRRGGG-doxorubicin),readily absorbed into cells,showed antitumor effects or intracellular uptake effects,50-200 nm,–,–,–,–,–,–,uptake into cell nuclei relative to drug conjugates of Examples 1 and 2 ([1]; FIG. 5D): 10 times lower
FRRGGGGG-DOX (FRRGGGGG-doxorubicin),not readily absorbed into cells,showed antitumor effects or intracellular uptake effects,300-700 nm,–,–,–,–,–,–,–
COc1cccc2c1C(=O)c1c(O)c3c(c(O)c1C2=O)C[C@@](O)(C(=O)CO)C[C@@H]3O[C@H]1C[C@H](NC(=O)CNC(=O)[C@H](CCCNC(=N)N)NC(=O)[C@H](CCCNC(=N)N)NC(C)=O)[C@H](O)[C@H](C)O1 [RRG-DOX],–,–,–,could not be effectively accumulated in tissues,–,–,–,–,–,"fluorescence intensity of doxorubicin in excised tumor tissues ([3]; 5 mg/kg intravenous, FIG. 3E/3F): low fluorescence intensity"
COc1cccc2c1C(=O)c1c(O)c3c(c(O)c1C2=O)C[C@@](O)(C(=O)CO)C[C@@H]3O[C@H]1C[C@H](N)[C@H](O)[C@H](C)O1 [doxorubicin],–,–,–,could not be effectively accumulated in tissues,Toxicity to normal cells was observed,mortality began to increase rapidly,"apoptosis was observed in all of the heart, spleen, and tumor tissues",significantly low compared to the baseline,significantly low compared to the baseline,"weight of the tumor animal models ([4]; 5 mg/kg tail vein once every three days): began to decrease; inhibition of tumor growth (tumor volume) [4, 13]: significantly inhibit tumor growth; levels of markers indicative of heart damage (hs troponin-T, Troponin-I, CK-MM, CPK total) [5]: higher levels of all markers; QTc values [6]: extended compared to those measured in the control"
GGGGFRRG-DOX (GGGGFRRG-doxorubicin),–,showed antitumor effects or intracellular uptake effects,200-600 nm,–,–,–,–,–,–,antitumor effect (cell viability of HT29) [8]: same antitumor effect as DOX; also recorded: most effective in antitumor action
COc1cccc2c1C(=O)c1c(O)c3c(c(O)c1C2=O)C[C@@](O)(C(=O)CO)C[C@@H]3O[C@H]1C[C@H](NC(=O)CNC(=O)[C@H](CCCNC(=N)N)NC(=O)[C@H](CCCNC(=N)N)NC(=O)[C@H](Cc2ccccc2)NC(C)=O)[C@H](O)[C@H](C)O1 [FRRG-DOX] (Ac-FRRG-{Doxorubicin(3'-N)}),–,–,–,–,no toxicity was observed,100%,apoptosis was observed only in the tumor tissues,remained substantially unchanged,remained substantially unchanged,"levels of markers indicative of heart damage (hs troponin-T, Troponin-I, CK-MM, CPK total) [9]: about two times lower than or comparable to those in the control; cell viability compared with group treated with doxorubicin alone (Free DOX) [10]: significant difference in cell viability; stability in phosphate buffered saline [11]: very stable in phosphate buffered saline; doxorubicin accumulation in tumor tissues ([3]; mouse, in vivo, iv): doxorubicin was accumulated in the tumor tissues"
